Data reported in ChEMBL document CHEMBL1201862, “PubChem BioAssay data set” (2004).
Structures can show the parent of a compound that is named as a salt. Active and inactive are the calls of the source.

Tests used:
[1] = molecular target: Glyceraldehyde-3-phosphate dehydrogenase (Homo sapiens, UniProt P04406)
[2] = molecular target: T1, Alkaline phosphatase, tissue-nonspecific isozyme (Homo sapiens, UniProt P05186); assay: human TNAP enzyme inhibitors, SAR follow-up, biochemical, luminescent, dose response (AID 1056)
T1 sequence (P05186 whole entry): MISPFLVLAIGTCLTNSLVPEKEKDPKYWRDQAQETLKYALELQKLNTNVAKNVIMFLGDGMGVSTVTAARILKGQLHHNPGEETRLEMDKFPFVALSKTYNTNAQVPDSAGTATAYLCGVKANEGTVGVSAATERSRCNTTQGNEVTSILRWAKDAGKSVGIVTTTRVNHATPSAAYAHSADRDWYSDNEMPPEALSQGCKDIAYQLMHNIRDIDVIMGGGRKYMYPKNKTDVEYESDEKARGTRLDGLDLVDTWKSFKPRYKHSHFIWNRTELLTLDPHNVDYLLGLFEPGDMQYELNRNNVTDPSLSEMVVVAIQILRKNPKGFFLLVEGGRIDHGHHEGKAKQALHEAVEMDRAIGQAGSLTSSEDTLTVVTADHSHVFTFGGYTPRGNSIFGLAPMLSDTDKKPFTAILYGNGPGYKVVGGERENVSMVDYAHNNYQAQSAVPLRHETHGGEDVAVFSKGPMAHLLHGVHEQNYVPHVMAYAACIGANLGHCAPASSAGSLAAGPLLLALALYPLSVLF

[3] = molecular target: Alkaline phosphatase, placental type (Homo sapiens, UniProt P05187); assay: PLAP enzyme inhibitors, confirmation, biochemical, luminescence (AID 1512); format: functional
[4] = molecular target: Melanin-concentrating hormone receptor 1 (Homo sapiens, UniProt Q99705); assay: Late-stage fluorescence-based counterscreen for antagonists of the G-protein coupled receptor 7 (GPR7): cell-based dose response assay to identify antagonists of the melanin-concentrating hormone receptor 1 (MCHR1). [Related pubchem assays (depositor defined):AID1861, AID1880, AID1952, AID2148, AID2251, AID2257, AID485339]; format: functional;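 further: stimulated with 30 nM MCH peptide agonist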
[5] = molecular target: Neuropeptides B/W receptor type 1 (Homo sapiens, UniProt P48145); assay: GPR7 antagonist potency, late-stage follow-up, cell-based, fluorescence, dose response (AID 463251); format: functional
[6] = test system: INS1; assay: beta cell apoptosis inhibitors, cytokine rescue, dose response, luminescence, retest (AID 449756); format: functional, cell-based; settings: Rattus norvegicus;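 further: cell death triggered by IL-1 beta plus TNF-alpha plus IFN-gamma mixture; protective hits raise ATP signal compared with cytokine alone wells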
[7] = molecular target: Troponin, cardiac muscle (Homo sapiens, UniProt P19429+P45379+P63316); assay: inhibitors of cardiac thin filament calcium sensitivity, dose response, biochemical, fluorescence, cardiac regulated thin filaments, triplicate IC50 (AID 504742); format: protein-complex assay
[8] = molecular target: Protein S100-A4 (Homo sapiens, UniProt P26447); assay: S100A4-myosin IIA binding inhibitor potency, dose response, biochemical, fluorescence polarization, cherry-picked hits (AID 687001); format: functional
[9] = molecular target: 14-3-3 protein gamma (Homo sapiens, UniProt P61981); assay: modulators of 14-3-3 gamma client binding – dose response (AID 711); format: functional
[10] = molecular target: T2, Insulin-degrading enzyme (Homo sapiens, UniProt P14735); assay: activators of recombinant IDE enzyme, dose response, counter-screen for IDE activator project, biochemical, fluorescence polarization (AID 588681)
T2 sequence (P14735 whole entry): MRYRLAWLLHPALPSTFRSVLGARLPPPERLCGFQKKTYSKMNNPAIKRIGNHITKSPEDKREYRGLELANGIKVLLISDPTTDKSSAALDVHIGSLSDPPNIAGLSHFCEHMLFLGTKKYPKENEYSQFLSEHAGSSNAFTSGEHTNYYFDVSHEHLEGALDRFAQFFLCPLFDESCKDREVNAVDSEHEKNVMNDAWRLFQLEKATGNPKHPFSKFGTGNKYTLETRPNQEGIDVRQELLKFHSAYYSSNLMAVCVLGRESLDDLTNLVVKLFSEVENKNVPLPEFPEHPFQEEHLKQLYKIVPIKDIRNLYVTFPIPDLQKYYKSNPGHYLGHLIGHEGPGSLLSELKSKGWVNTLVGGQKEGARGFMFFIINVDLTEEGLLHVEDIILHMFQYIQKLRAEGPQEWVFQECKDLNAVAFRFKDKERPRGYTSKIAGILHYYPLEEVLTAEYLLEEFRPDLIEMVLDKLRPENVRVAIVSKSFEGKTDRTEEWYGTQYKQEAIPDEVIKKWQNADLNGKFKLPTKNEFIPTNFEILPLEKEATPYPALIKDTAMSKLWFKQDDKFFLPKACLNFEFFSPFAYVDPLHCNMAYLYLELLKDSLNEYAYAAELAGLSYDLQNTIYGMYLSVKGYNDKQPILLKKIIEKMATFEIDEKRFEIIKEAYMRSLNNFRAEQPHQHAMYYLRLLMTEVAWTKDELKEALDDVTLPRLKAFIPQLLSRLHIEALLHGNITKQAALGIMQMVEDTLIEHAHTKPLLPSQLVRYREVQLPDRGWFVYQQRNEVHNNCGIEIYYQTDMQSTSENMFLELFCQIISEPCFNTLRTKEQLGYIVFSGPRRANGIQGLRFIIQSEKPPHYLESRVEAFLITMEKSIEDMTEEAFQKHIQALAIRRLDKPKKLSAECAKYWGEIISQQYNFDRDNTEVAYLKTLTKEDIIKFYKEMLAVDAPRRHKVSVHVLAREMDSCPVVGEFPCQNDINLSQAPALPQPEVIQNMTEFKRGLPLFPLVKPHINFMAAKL

[11] = molecular target: Aryl hydrocarbon receptor (Homo sapiens, UniProt P35869); settings: Potency;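 further: confirmatory quantitative high-throughput screen measuring activation of the AhR signaling pathway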
[12] = test system: HeLa; assay: HeLa cell cytotoxicity, dose response, cytotoxicity control, 24 h, cherry-picked samples (AID 504726); format: functional, cell-based; settings: Homo sapiens;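 further: potency for cytotoxicity as loss of luminescence signal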
[13] = molecular target: Nonstructural protein 1 (Influenza A virus, UniProt Q194T2); format: functional, Influenza A virus (A/California/07/2009(H1N1))
[14] = molecular target: ORF 73 (Human herpesvirus 8, UniProt O40947); assay: inhibitors of C-LANA binding to LBS DNA, dose response, biochemical, fluorescence polarization, cherry-picked samples (AID 504725); set-up: species or system Human gammaherpesvirus 8;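 further: fluorescence polarization of a labeled DNA duplex reporting LANA DNA binding; potency is for inhibitors that block LANA binding to the DNA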
[15] = molecular target: T3, fMet-Leu-Phe receptor (Homo sapiens, UniProt P21462); assay: FPR ligands, dose response (AID 519); format: functional
T3 sequence (P21462 whole entry): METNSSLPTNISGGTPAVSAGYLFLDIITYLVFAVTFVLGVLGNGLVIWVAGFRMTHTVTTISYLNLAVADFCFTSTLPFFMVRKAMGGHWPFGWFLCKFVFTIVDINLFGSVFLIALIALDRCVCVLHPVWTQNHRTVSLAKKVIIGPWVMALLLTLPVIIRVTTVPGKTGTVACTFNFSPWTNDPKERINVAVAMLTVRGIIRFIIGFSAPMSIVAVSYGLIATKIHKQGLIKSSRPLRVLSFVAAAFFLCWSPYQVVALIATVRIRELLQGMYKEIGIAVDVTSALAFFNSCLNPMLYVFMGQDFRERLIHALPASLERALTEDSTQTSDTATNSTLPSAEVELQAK

[16] = molecular target: Paired box protein Pax-8 (Homo sapiens, UniProt Q06710); assay: inhibitors of PAX8-driven TPO luciferase reporter, dose response, RMG-I cells, cherry-pick (AID 687027); format: functional, cell-based;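 further: luciferase reporter driven by Pax8 target thyroperoxidase promoter measured by SteadyGlo luminescence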
[17] = test system: HEK293; assay: optical interference in Abeta FP readout, dose response, artefact control for IDE activator project, biochemical, fluorescence polarization (AID 588442); format: functional, cell-based; settings: Homo sapiens
[18] = molecular target: T2, Insulin-degrading enzyme; assay: activators of endogenous IDE in HEK cells, dose response, cell-based, fluorescence polarization (AID 588439); format: functional
[19] = test system: HEK293; assay: HEK cell cytotoxicity by LDH release, dose response, cytotoxicity control for IDE activator project, fluorescence, HEK cells (AID 588440); format: functional, cell-based; settings: Homo sapiens;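 further: cytotoxicity by LDH release measuring loss of membrane integrity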

Melanin-concentrating hormone receptor 1, sequence (Q99705 whole entry): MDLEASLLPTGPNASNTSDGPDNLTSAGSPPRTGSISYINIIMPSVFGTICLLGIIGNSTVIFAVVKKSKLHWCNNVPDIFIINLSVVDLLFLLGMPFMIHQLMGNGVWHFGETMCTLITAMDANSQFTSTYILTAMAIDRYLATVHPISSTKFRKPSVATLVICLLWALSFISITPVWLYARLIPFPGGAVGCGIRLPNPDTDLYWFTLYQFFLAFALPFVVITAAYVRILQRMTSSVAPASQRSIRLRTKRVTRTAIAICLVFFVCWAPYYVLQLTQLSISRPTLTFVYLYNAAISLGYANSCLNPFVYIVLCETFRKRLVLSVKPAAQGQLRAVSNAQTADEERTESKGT
Alkaline phosphatase, placental type, sequence (P05187 whole entry): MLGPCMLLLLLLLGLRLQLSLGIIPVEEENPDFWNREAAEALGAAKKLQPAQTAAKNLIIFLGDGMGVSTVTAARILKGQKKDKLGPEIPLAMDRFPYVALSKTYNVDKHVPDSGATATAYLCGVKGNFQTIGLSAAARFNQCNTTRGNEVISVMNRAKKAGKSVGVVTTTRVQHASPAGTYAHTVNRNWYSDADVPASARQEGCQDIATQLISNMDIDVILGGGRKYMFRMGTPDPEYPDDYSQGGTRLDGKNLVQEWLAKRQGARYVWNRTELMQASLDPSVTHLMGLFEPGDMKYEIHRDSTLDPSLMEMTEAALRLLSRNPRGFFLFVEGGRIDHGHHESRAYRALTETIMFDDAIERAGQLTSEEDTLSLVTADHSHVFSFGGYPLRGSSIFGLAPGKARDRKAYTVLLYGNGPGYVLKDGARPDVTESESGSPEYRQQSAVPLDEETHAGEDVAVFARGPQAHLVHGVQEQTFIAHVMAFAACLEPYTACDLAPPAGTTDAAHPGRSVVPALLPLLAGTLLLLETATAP
Nonstructural protein 1, sequence (Q194T2 whole entry): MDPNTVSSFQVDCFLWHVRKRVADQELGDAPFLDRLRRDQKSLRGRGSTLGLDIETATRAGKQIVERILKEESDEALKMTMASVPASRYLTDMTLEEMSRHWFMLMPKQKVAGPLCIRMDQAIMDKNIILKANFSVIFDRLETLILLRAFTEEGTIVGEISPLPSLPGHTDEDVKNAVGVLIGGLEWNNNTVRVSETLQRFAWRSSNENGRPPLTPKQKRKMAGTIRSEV
Aryl hydrocarbon receptor, sequence (P35869 whole entry): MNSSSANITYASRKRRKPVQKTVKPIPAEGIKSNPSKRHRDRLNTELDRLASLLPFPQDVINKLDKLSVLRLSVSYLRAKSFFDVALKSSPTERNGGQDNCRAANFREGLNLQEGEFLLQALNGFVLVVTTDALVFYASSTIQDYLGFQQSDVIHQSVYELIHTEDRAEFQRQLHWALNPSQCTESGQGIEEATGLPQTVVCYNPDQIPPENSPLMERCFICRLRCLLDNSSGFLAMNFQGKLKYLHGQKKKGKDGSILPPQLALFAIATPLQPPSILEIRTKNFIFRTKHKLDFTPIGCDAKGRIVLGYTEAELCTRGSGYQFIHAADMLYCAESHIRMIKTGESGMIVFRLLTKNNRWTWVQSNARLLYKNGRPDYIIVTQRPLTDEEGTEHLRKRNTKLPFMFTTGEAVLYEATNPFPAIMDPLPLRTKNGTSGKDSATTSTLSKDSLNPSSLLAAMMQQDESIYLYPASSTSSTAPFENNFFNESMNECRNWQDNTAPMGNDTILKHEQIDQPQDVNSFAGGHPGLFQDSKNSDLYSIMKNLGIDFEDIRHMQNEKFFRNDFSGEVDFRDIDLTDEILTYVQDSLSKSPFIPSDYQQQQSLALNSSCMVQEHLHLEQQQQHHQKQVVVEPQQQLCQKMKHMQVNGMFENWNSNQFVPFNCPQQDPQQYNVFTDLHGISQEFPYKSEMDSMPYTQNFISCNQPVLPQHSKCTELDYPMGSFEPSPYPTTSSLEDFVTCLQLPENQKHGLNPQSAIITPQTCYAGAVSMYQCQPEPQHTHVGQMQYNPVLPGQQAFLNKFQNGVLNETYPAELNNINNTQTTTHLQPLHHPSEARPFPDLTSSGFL
Paired box protein Pax-8, sequence (Q06710 whole entry): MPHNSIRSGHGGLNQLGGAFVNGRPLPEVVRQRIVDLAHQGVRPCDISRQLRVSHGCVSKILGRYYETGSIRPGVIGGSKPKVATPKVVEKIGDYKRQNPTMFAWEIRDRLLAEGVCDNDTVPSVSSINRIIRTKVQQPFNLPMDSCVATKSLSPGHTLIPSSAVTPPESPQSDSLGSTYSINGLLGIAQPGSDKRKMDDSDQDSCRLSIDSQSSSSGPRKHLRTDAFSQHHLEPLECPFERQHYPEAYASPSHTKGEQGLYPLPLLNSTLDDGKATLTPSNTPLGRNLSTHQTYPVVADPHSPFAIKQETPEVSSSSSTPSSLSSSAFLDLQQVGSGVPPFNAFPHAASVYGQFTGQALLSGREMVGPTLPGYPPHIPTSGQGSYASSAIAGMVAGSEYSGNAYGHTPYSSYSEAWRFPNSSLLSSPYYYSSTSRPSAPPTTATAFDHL
14-3-3 protein gamma, sequence (P61981 whole entry): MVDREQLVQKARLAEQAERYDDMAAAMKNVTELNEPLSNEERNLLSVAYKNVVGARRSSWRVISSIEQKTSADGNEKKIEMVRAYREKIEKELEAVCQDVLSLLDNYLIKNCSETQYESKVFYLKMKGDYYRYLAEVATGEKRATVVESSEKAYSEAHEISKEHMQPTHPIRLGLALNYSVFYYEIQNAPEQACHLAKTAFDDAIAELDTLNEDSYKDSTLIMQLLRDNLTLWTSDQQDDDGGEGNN
Glyceraldehyde-3-phosphate dehydrogenase, sequence (P04406 whole entry): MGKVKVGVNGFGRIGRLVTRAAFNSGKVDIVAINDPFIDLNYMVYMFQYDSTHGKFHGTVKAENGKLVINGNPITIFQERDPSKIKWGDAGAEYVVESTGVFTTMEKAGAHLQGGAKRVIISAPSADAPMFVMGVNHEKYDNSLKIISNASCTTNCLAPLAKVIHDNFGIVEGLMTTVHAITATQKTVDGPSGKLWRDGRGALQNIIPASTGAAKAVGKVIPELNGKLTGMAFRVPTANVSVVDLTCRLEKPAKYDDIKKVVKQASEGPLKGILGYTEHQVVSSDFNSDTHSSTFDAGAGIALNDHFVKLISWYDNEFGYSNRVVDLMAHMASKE
Neuropeptides B/W receptor type 1, sequence (P48145 whole entry): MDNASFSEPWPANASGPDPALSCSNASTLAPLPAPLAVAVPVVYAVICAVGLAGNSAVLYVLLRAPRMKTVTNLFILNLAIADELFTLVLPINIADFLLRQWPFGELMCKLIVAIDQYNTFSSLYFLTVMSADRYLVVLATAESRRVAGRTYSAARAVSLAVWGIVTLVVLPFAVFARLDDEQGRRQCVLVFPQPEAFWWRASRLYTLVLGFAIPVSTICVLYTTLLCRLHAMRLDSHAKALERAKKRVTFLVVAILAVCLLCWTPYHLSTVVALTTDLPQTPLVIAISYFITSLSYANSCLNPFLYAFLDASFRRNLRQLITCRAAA
Protein S100-A4, sequence (P26447 whole entry): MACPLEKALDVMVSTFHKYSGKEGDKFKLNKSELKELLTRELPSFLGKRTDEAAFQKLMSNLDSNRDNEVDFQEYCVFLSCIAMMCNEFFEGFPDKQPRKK
ORF 73, sequence (O40947 whole entry): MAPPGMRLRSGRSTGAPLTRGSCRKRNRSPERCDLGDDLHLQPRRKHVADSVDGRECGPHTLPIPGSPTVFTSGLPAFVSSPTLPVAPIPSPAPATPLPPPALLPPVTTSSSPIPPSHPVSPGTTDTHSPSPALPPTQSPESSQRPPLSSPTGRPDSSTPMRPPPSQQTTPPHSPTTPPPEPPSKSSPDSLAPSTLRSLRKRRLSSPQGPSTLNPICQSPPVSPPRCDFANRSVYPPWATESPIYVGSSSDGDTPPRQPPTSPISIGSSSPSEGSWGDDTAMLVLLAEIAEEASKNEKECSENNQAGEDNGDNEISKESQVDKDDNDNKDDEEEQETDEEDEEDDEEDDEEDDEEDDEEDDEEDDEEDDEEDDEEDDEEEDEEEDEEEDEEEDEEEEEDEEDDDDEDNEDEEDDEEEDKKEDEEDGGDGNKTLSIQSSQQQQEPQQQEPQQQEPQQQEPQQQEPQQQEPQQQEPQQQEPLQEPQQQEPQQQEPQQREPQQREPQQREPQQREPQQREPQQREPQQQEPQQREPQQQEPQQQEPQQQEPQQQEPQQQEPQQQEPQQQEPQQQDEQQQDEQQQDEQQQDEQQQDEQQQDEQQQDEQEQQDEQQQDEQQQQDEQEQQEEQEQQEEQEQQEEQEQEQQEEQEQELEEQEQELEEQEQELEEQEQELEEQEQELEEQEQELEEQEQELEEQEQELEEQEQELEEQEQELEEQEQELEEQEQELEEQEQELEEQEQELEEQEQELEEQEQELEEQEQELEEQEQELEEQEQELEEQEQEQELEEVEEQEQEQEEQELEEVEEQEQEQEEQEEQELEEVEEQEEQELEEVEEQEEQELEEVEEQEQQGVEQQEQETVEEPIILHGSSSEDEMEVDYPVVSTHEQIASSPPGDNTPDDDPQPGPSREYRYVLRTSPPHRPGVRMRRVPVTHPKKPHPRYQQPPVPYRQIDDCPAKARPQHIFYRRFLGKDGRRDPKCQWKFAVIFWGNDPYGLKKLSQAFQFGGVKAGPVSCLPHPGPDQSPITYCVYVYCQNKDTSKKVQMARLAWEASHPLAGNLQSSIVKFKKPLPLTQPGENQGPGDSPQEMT

COc1ccc(-c2cc(-c3ccc4ccccc4c3O)n[nH]2)cc1
IC50 [1]: > 100 µM (not active)
IC50 [2]: > 100 µM (inactive)
IC50 [3]: > 100 µM (inactive)

Cc1ccc(-n2ncc(Cl)c(Oc3ccc(C(F)(F)F)cc3)c2=O)cc1
IC50 [4]: 5.5 µM (active)
IC50 [5]: 2.2 µM (active)

COc1cccc(/C=N/Nc2nc3ccccc3n3cnnc23)c1O
AC50 [6]: 1.84 µM (active)
IC50 [7]: 7.6 µM (active)

COc1cccc2c1C(=O)c1c(O)c3c(c(O)c1C2=O)C[C@@](O)(C(C)=O)C[C@@H]3O[C@H]1C[C@H](N)[C@H](O)[C@H](C)O1 [DAUNORUBICIN HYDROCHLORIDE]
AC50 [8]: 235 nM (active)
IC50 [9]: < 781 nM (active)
EC50 [10]: > 54.7 µM (inactive)
AC50 [11]: 12.6 µM (inconclusive)
AC50 [12]: 1.73 µM (active)
IC50 [13]: 32.7 µM (active)
AC50 [14]: 2.36 µM (active)
Ki [15]: > 66.7 µM (inactive)
AC50 [16]: 1.55 µM (active)
EC50 [17]: > 54.7 µM (inactive)
EC50 [18]: > 54.7 µM (inactive)
IC50 [19]: 17.7 µM (inactive)
